Assay results from PMC7144182, “Synthesis, biological evaluation and molecular modelling of 2,4-disubstituted-5-(6-alkylpyridin-2-yl)-1H-imidazoles as ALK5 inhibitors” (Journal of Enzyme Inhibition and Medicinal Chemistry, 2020).
Several values for one entry are separate records, joined by “and”; a condition that tells them apart may be missing. Equal entries are not always repeated. Marks after values point to notes of the source that are not given here.

Key:
[1] = target: T1, purified human ALK5 kinase domain (Homo sapiens, UniProt P36897); test: ALK5 kinase assay (33PanQinase, casein as substrate); assay type: biochemical; conditions: for IC50: casein substrate, 1 μM ATP, singlicate (11e: mean of triplicates); for fold more potent than the benzo[1,3]dioxol-5-yl analogue: 11a vs 7a, 16a vs 7b; for fold less potent than the corresponding 6-methylpyridyl analogue / fold more inhibiting than the respective methylene linker analogue: vs 11a; for fold less potent than the corresponding 6-methylpyridyl analogue: 11e, 16a, 16e respectively; for fold more inhibiting than the corresponding m-CONH2 analogues 16e and 16f: ethylene linker series; for fold more inhibiting than the respective methylene linker analogue: 11b, 11c, 11g respectively
T1 construct: using the purified human ALK5 kinase domain produced in Sf9 insect cells; host or cells: Sf9 insect cells
T1 sequence (P36897 205-495 limits assumed): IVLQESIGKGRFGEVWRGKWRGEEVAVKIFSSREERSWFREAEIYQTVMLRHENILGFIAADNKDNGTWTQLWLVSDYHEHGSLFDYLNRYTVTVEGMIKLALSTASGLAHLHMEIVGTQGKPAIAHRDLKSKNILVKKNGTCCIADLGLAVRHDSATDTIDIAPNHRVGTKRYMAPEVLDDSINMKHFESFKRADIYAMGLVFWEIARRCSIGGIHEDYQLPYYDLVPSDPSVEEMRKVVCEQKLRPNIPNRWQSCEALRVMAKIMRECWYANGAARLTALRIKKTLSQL
Description: To evaluate whether these potential inhibitors 7a–c, 11a–h, and 16a–h could inhibit ALK5, a kinase assay was performed using the purified human ALK5 kinase domain produced in Sf9 insect cells and casein as a substrate (Table 1).

[2] = system: TGF-β1-induced luciferase reporter activity, HaCaT (3TP-luc) stable cells; test: Cell-based p3TP-luciferase reporter assay; conditions: for % inhibition in luciferase reporter assay: 0.1 µM inhibitor; for p3TP-luciferase activity (% control): 0.1 μM inhibitor, TGF-β1 2 ng/mL, 24 h, mean ± SD of three independent experiments
Description: To establish HaCaT (3TP-luc) stable cells, cells were seeded on six-well plates. Cells were allowed to adhere overnight and then transfected with the p3TP-luc (neo) expression plasmid using PEI reagent (Sigma Aldrich). Transfected cells were cultured for four weeks in the presence of G418 (500 µg/mL). Several single clones were isolated and measured luciferase activity. The clone showing response to TGF-β1 treatment was used for reporter assay. HaCaT (3TP-luc) stable cells were seeded at 2.5 × 10^4 cells/well in 96-well plate and were allowed to adhere overnight. Cells were concomitantly treated with TGF-β1 (2 ng/mL) and indicated concentrations of ALK5 inhibitors in 0.2% FBS medium and incubated for 24 h at 37 °C in 5% CO2. Cell lysates were prepared using Luciferase Assay System (Promega) according to the manufacturer’s instruction, and luminescence was measured by a luminometer, Micro Lumat Plus (Berthold, Germany).

Caco-2 cells = test: Caco-2 cell permeability assay; assay type: in vitro ADME; conditions: 100 µM, AP to BL, 2 h; mean ± SD of quadruplicates
Description: Caco-2 cells were seeded in Transwell® polycarbonate filter at a density of 8 × 10^4 cells/filter and cultured for 21 days. Culture medium was removed from both apical (AP) and basolateral (BL) chambers of transwell, and the wells were rinsed three times with PBS. AP buffer (HBSS, pH 6.5) containing 10 mM MES and BL buffer (HBSS, pH 7.4) containing 10 mM HEPES were loaded in AP (500 µL) and BL (1500 µL) chambers, respectively, followed by incubation for 30 min at 37 °C. Then, test compound (100 µM) was added to the AP side and incubated for 2 h at 37 °C. After the incubation, BL buffer was collected and analysed using an UV spectrophotometer at a maximum wavelength (wavelength 225–357 nm).
To estimate oral absorption of target compounds, their permeability in a Caco-2 monolayer was evaluated at a concentration of 100 µM (Table 1).

Structure (SMILES) | IC50 [1] [nM] | % inhibition in luciferase reporter assay [2] [% inhibition] | p3TP-luciferase activity (% control) [2] [% control] | Caco-2 permeability (%) (Caco-2 cells) | fold higher ALK5 inhibitory activity than 7a ([1]; kinase assay) [fold] | fold higher ALK5 inhibitory activity than 7c ([1]; kinase assay) [fold] | fold more potent than the benzo[1,3]dioxol-5-yl analogue ([1]; kinase assay) [fold] | fold less potent than the corresponding 6-methylpyridyl analogue ([1]; kinase assay) | fold more inhibiting than the corresponding m-CONH2 analogues 16e and 16f [1] [fold] | fold more inhibiting than the respective methylene linker analogue [1] [fold]
Cc1cccc(-c2[nH]c(Cc3ccc(C(N)=O)cc3)nc2-c2ccc3c(c2)OCO3)n1 [Compound 7a, 4-((4-(Benzo[d][1,3]dioxol-5-yl)-5-(6-methylpyridin-2-yl)-1H-imidazol-2-yl)methyl)benzamide] | 224 | 72 | 28 ± 7.1 | 35 ± 0.7^f % | – | – | – | – | – | –
Cc1cccc(-c2[nH]c(CCc3ccc(C(N)=O)cc3)nc2-c2ccc3c(c2)OCO3)n1 [Compound 7b, 4-(2-(4-(Benzo[d][1,3]dioxol-5-yl)-5-(6-methylpyridin-2-yl)-1H-imidazol-2-yl)ethyl)benzamide] | 93 | 74 | 26 ± 7.9 | 23 ± 3.0% | 2.4 | 3.6 | – | – | – | –
Cc1cccc(-c2[nH]c(CCCc3ccc(C(N)=O)cc3)nc2-c2ccc3c(c2)OCO3)n1 [Compound 7c, 4-(3-(4-(Benzo[d][1,3]dioxol-5-yl)-5-(6-methylpyridin-2-yl)-1H-imidazol-2-yl)propyl)benzamide] | 338 | 40 | 60 ± 9.5 | 32 ± 1.1% | – | – | – | – | – | –
Cc1cccc(-c2[nH]c(Cc3ccc(C(N)=O)cc3)nc2-c2ccc3nccnc3c2)n1 [Compound 11a, 4-((5-(6-Methylpyridin-2-yl)-4-(quinoxalin-6-yl)-1H-imidazol-2-yl)methyl)benzamide] | 88 | 84 | 16 ± 4.5 | 25 ± 1.3% | – | – | 2.5 | – | – | –
CCc1cccc(-c2[nH]c(Cc3ccc(C(N)=O)cc3)nc2-c2ccc3nccnc3c2)n1 [Compound 11b, 4-((5-(6-Ethylpyridin-2-yl)-4-(quinoxalin-6-yl)-1H-imidazol-2-yl)methyl)benzamide] | 112 | – | 33 ± 21.3 | 26 ± 3.5% | – | – | – | 1.3 fold | – | –
CC(C)c1cccc(-c2[nH]c(Cc3ccc(C(N)=O)cc3)nc2-c2ccc3nccnc3c2)n1 [Compound 11c, 4-((5-(6-Isopropylpyridin-2-yl)-4-(quinoxalin-6-yl)-1H-imidazol-2-yl)methyl)benzamide] | 2190 | – | 39 ± 11.4 | 30 ± 9.0% | – | – | – | 13–35 fold | – | –
CCCCc1cccc(-c2[nH]c(Cc3ccc(C(N)=O)cc3)nc2-c2ccc3nccnc3c2)n1 [Compound 11d, 4-((5-(6-n-Butylpyridin-2-yl)-4-(quinoxalin-6-yl)-1H-imidazol-2-yl)methyl)benzamide] | 2700 | – | 85 ± 32.5 | 41 ± 5.3% | – | – | – | – | – | –
CCc1cccc(-c2[nH]c(Cc3cccc(C(N)=O)c3)nc2-c2ccc3nccnc3c2)n1 [Compound 11f, 3-((5-(6-Ethylpyridin-2-yl)-4-(quinoxalin-6-yl)-1H-imidazol-2-yl)methyl)benzamide] | 75 | – | 17 ± 3.7 | 38 ± 13.8% | – | – | – | 2.1 fold | – | –
CC(C)c1cccc(-c2[nH]c(Cc3cccc(C(N)=O)c3)nc2-c2ccc3nccnc3c2)n1 [Compound 11g, 3-((5-(6-Isopropylpyridin-2-yl)-4-(quinoxalin-6-yl)-1H-imidazol-2-yl)methyl)benzamide] | 1250 | – | 69 ± 6.7 | 34 ± 15.6% | – | – | – | 13–35 fold | – | –
CCCCc1cccc(-c2[nH]c(Cc3cccc(C(N)=O)c3)nc2-c2ccc3nccnc3c2)n1 [Compound 11h, 3-((5-(6-n-Butylpyridin-2-yl)-4-(quinoxalin-6-yl)-1H-imidazol-2-yl)methyl)benzamide] | 1040 | – | 83 ± 21.1 | – | – | – | – | – | – | –
Cc1cccc(-c2[nH]c(CCc3ccc(C(N)=O)cc3)nc2-c2ccc3nccnc3c2)n1 [Compound 16a, 4-(2-(5-(6-Methylpyridin-2-yl)-4-(quinoxalin-6-yl)-1H-imidazol-2-yl)ethyl)benzamide] | 30 | 85 | 15 ± 8.2 | 45 ± 5.3% | – | – | 3.1 | – | 1.6 | 2.9
CCc1cccc(-c2[nH]c(CCc3ccc(C(N)=O)cc3)nc2-c2ccc3nccnc3c2)n1 [Compound 16b, 4-(2-(5-(6-Ethylpyridin-2-yl)-4-(quinoxalin-6-yl)-1H-imidazol-2-yl)ethyl)benzamide] | 41 | 84 | 16 ± 8.4 | 25 ± 3.7% | – | – | – | 1.4 fold | 1.6 | 2.7
CC(C)c1cccc(-c2[nH]c(CCc3ccc(C(N)=O)cc3)nc2-c2ccc3nccnc3c2)n1 [Compound 16c, 4-(2-(5-(6-Isopropylpyridin-2-yl)-4-(quinoxalin-6-yl)-1H-imidazol-2-yl)ethyl)benzamide] | 653 | – | 85 ± 38.9 | 23 ± 3.1% | – | – | – | 13–35 fold | – | 3.4
CCCCc1cccc(-c2[nH]c(CCc3ccc(C(N)=O)cc3)nc2-c2ccc3nccnc3c2)n1 [Compound 16d, 4-(2-(5-(6-n-Butylpyridin-2-yl)-4-(quinoxalin-6-yl)-1H-imidazol-2-yl)ethyl)benzamide] | 2380 | – | 76 ± 5.7 | 24 ± 1.9% | – | – | – | – | – | –
Cc1cccc(-c2[nH]c(CCc3cccc(C(N)=O)c3)nc2-c2ccc3nccnc3c2)n1 [Compound 16e, 3-(2-(5-(6-Methylpyridin-2-yl)-4-(quinoxalin-6-yl)-1H-imidazol-2-yl)ethyl)benzamide] | 47 | 93 | 7 ± 0.7 | 21 ± 9.5% | – | – | – | – | – | –
CCc1cccc(-c2[nH]c(CCc3cccc(C(N)=O)c3)nc2-c2ccc3nccnc3c2)n1 [Compound 16f, 3-(2-(5-(6-Ethylpyridin-2-yl)-4-(quinoxalin-6-yl)-1H-imidazol-2-yl)ethyl)benzamide] | 66 | – | 56 ± 14.6 | 6% and 6 ± 4.1% | – | – | – | 1.4 fold | – | –
